Data published in patent publication US12098145B2 (Libra Therapeutics, Inc., priority 2022, dated 2024).

Target: T1, TRPML1 (Homo sapiens, UniProt Q9GZU1)
T1 construct: expressed in transfected cells; host or cells: HEK T-REx cells stably expressing GCaMP6f and TRPML1
Assay: Cellular TRPML1 assay (FLIPR, GCaMP6f calcium read-out)
Type: cell-based
Settings: HEKT-REx/GCaMP6f/TRPML1 cells, FLIPR TETRA, kinetic response over 300 seconds; read-out: TRPML1 FLIPR pEC50 (converted)
Procedure, shortened: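 HEK T-REx cells stably expressing TRPML1 and GCaMP6f, seeded 24 h before in Optimem + 0.5% FBS. After ~10 min pre-incubation at room temperature, compounds in Ca2+-free Tyrode's buffer were injected on FLIPR Tetra (final DMSO 0.5%). Calcium fluorescence kinetics followed for 300 s.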

T1 sequence (Q9GZU1 whole entry): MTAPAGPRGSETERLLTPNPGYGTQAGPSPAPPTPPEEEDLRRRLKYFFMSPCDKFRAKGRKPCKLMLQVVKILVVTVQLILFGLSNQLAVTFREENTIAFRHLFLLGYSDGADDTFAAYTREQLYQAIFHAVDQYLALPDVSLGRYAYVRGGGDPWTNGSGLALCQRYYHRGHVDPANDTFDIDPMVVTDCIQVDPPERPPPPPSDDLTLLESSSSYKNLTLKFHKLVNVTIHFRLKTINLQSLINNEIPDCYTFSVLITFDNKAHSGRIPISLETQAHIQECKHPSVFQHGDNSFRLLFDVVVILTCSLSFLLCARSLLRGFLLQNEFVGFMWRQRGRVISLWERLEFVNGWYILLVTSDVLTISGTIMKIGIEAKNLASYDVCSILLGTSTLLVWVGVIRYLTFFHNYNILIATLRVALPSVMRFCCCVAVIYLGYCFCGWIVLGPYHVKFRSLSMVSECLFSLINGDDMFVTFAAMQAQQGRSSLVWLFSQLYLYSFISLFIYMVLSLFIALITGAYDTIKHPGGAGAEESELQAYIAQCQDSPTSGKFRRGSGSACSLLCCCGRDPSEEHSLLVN

Structure (SMILES) | EC50 [µM]
O=C(Nc1ccc(OC2CCCCC2)c(F)c1)c1nc(N2CCCC2)oc1CC(F)(F)F [Example 65, N-(4-(cyclohexyloxy)-3-fluorophenyl)-2-(pyrrolidin-1-yl)-5-(2,2,2-trifluoroethyl)oxazole-4-carboxamide] | 1 to 10
Cc1oc(N2CCC(CN3CCC(F)(F)CC3)C2)nc1C(=O)Nc1ccc(N2CCCCC2)c(F)c1 (centres unmarked) [Example 107, 2-(3-((4,4-difluoropiperidin-1-yl)methyl)pyrrolidin-1-yl)-N-(3-fluoro-4-(piperidin-1-yl)phenyl)-5-methyloxazole-4-carboxamide] | 10 to 100
O=C(Nc1cc(F)c(OC2CC3CC(C3)C2)c(F)c1)c1nc(N2CCCC2)oc1CC(F)(F)F (centres unmarked) [Example 169, N-(4-(bicyclo[3.1.1]heptan-3-yloxy)-3,5-difluorophenyl)-2-(pyrrolidin-1-yl)-5-(2,2,2-trifluoroethyl)oxazole-4-carboxamide] | 0.01 to 1
Cc1cc(NC(=O)c2nc(N3CCCC3)oc2CC(F)(F)F)cc(F)c1NC1C2CCCC1CC2 (centres unmarked) [Example 194, N-(4-(bicyclo[3.2.1]octan-8-ylamino)-3-fluoro-5-methylphenyl)-2-(pyrrolidin-1-yl)-5-(2,2,2-trifluoroethyl)oxazole-4-carboxamide] | 10 to 100
NCC1CN(c2nc(C(=O)Nc3ccc(OC4CCCC4(F)F)c(F)c3)c(CC(F)(F)F)o2)C1 (centres unmarked) [Example 88, 2-[3-(aminomethyl)azetidin-1-yl]-N-{4-[(2,2-difluorocyclopentyl)oxy]-3-fluorophenyl}-5-(2,2,2-trifluoroethyl)oxazole-4-carboxamide] | 10 to 100
O=C(Nc1cc(F)c(CN2CC3CC3C2)c(F)c1)c1nc(N2CCCC2)oc1CC(F)(F)F (centres unmarked) [Example 218, N-(4-{3-azabicyclo [3.1.0]hexan-3-ylmethyl}-3,5-difluorophenyl)-2-(pyrrolidin-1-yl)-5-(2,2,2-trifluoroethyl)-1,3-oxazole-4-carboxamide] | 10 to 100
COCC1CCN(c2nc(C(=O)Nc3ccc(OC4CCCC4(F)F)c(F)c3)c(CC(F)(F)F)o2)C1 (centres unmarked) [Example 7, N-(4-((2,2-difluorocyclopentyl)oxy)-3-fluorophenyl)-2-(3-(methoxymethyl)pyrrolidin-1-yl)-5-(2,2,2-trifluoroethyl)oxazole-4-carboxamide] | 1 to 10
O=C(Nc1ccc(OCCC(F)(F)F)c(F)c1)c1nc(N2CCCC2)oc1CC(F)(F)F [Example 58, N-(3-fluoro-4-(3,3,3-trifluoropropoxy)phenyl)-2-(pyrrolidin-1-yl)-5-(2,2,2-trifluoroethyl)oxazole-4-carboxamide] | 1 to 10
Cc1oc(N2CCC(CN3CCC3)C2)nc1C(=O)Nc1ccc(N2CCCCC2)c(F)c1 (centres unmarked) [Example 106, 2-(3-(azetidin-1-ylmethyl)pyrrolidin-1-yl)-N-(3-fluoro-4-(piperidin-1-yl)phenyl)-5-methyloxazole-4-carboxamide] | 10 to 100
COCc1oc(N2CC3(C2)CC(F)(F)C3)nc1C(=O)Nc1ccc(N2CCCCC2)c(F)c1 [Example 104, 2-{6,6-difluoro-2-azaspiro[3.3]heptan-2-yl}-N-[3-fluoro-4-(piperidin-1-yl)phenyl]-5-(methoxymethyl)oxazole-4-carboxamide] | 1 to 10
COC1(C)CN(c2nc(C(=O)Nc3ccc(OC4CC5CCC(C4)O5)c(F)c3)c(CC(F)(F)F)o2)C1 (centres unmarked) [Example 133, N-(4-((8-oxabicyclo[3.2.1]octan-3-yl)oxy)-3-fluorophenyl)-2-(3-methoxy-3-methylazetidin-1-yl)-5-(2,2,2-trifluoroethyl)oxazole-4-carboxamide] | 1 to 10
O=C(Nc1ccc(OC2CC3C[C@@H]3C2)c(F)c1)c1nc(N2CC3CCOC3C2)oc1CC(F)(F)F (stereo partly drawn) [Example 187, N-(4-(cis-bicyclo[3.1.0]hexan-3-yloxy)-3-fluorophenyl)-2-(hexahydro-5H-furo[2,3-c]pyrrol-5-yl)-5-(2,2,2-trifluoroethyl)oxazole-4-carboxamide] | 0.01 to 1
O=C(Nc1cc(F)c(OC2CC3C[C@H]3C2)c(F)c1)c1nc(N2CC3CCCC3C2)oc1CC(F)(F)F (stereo partly drawn) [Example 40, N-(4-{cis-bicyclo[3.1.0]hexan-3-yloxy}-3,5-difluorophenyl)-2-{octahydrocyclopenta[c]pyrrol-2-yl}-5-(2,2,2-trifluoroethyl)oxazole-4-carboxamide] | 0.01 to 1
O=C(Nc1ccc(OC2CCC3CC32)c(F)c1)c1nc(N2CCCC2)oc1CC(F)(F)F (centres unmarked) [Example 51, N-(4-{bicyclo[3.1.0]hexan-2-yloxy}-3-fluorophenyl)-2-(pyrrolidin-1-yl)-5-(2,2,2-trifluoroethyl)oxazole-4-carboxamide] | 1 to 10
O=C(Nc1ccc(OC2CCCC2(F)F)c(F)c1)c1nc(N2CC(C(F)(F)F)C2)oc1CC(F)(F)F (centres unmarked) [Example 18, N-(4-((2,2-difluorocyclopentyl)oxy)-3-fluorophenyl)-5-(2,2,2-trifluoroethyl)-2-(3-(trifluoromethyl)azetidin-1-yl)oxazole-4-carboxamide] | 0.01 to 1
CCc1oc(N2CCCC2)nc1C(=O)Nc1cc(F)c(O[C@@H]2C[C@@H]3C[C@@H]3C2)c(Cl)c1 [Example 222, N-(4-(cis-bicyclo[3.1.0]hexan-3-yloxy)-3-chloro-5-fluorophenyl)-5-ethyl-2-(pyrrolidin-1-yl)oxazole-4-carboxamide] | 0.01 to 1
O=C(Nc1cc(F)c(O[C@@H]2C[C@@H]3C[C@@H]3C2)c(F)c1)c1nc(N2CCCC2)oc1CN1CCC1 [Example 306, 5-(azetidin-1-ylmethyl)-N-(4-(cis-bicyclo[3.1.0]hexan-3-yloxy)-3,5-difluorophenyl)-2-(pyrrolidin-1-yl)oxazole-4-carboxamide] | 1 to 10
O=C(Nc1cc(F)c(OC2CC3C[C@H]3C2)c(F)c1)c1nc(N2CC3(CCCC3)C2)oc1CC(F)(F)F (stereo partly drawn) [Example 41, N-(4-(cis-bicyclo[3.1.0]hexan-3-yloxy)-3,5-difluorophenyl)-2-(2-azaspiro[3.4]octan-2-yl)-5-(2,2,2-trifluoroethyl)oxazole-4-carboxamide] | 0.01 to 1
CCC1(CC)CN(c2nc(C(=O)Nc3cc(F)c(OC4CCCOC4)c(F)c3)c(CC(F)(F)F)o2)C1 (centres unmarked) [Example 137, 2-(3,3-diethylazetidin-1-yl)-N-(3,5-difluoro-4-((tetrahydro-2H-pyran-3-yl)oxy)phenyl)-5-(2,2,2-trifluoroethyl)oxazole-4-carboxamide] | 0.01 to 1
CC(C)OCc1oc(N2CCCC2)nc1C(=O)Nc1ccc(OC2CCCC2(F)F)c(F)c1 (centres unmarked) [Example 109] | 1 to 10
CCc1oc(N2CC(C)(OC)C2)nc1C(=O)Nc1cc(O)c(OC2CC3C[C@@H]3C2)c(Cl)c1 (stereo partly drawn) [Example 271, N-(4-(cis-bicyclo[3.1.0]hexan-3-yloxy)-3-chloro-5-hydroxyphenyl)-5-ethyl-2-(3-methoxy-3-methylazetidin-1-yl)oxazole-4-carboxamide] | 1 to 10
COCc1oc(N2CCCC2)nc1C(=O)Nc1ccc(OC2CCCC2(F)F)c(F)c1 (centres unmarked) [Example 105, N-(4-((2,2-difluorocyclopentyl)oxy)-3-fluorophenyl)-5-(methoxymethyl)-2-(pyrrolidin-1-yl)oxazole-4-carboxamide] | 1 to 10
CCc1oc(-n2cccn2)nc1C(=O)Nc1cc(F)c(O[C@@H]2C[C@@H]3C[C@@H]3C2)c(F)c1 [Example 232, N-(4-(cis-bicyclo[3.1.0]hexan-3-yloxy)-3,5-difluorophenyl)-5-ethyl-2-(1H-pyrazol-1-yl)oxazole-4-carboxamide] | 1 to 10
